The values below come from PMC8121805, “Discovery of first-in-class inhibitors of ASH1L histone methyltransferase with anti-leukemic activity” (Nature Communications, 2021).

Common to all, as to assay type: cell-based, human
The subject of one test is MOLM13 cells. The experiment in a line: MTT cell viability assay. Conditions: MTT, 7 days. How it is done: (§1) FBS and 1% penicillin/streptomycin. […] Media was changed on day 3 or 4 and compounds were resupplied. […] Cell suspensions (100 μL) were transferred to the 96-well plates for each sample in quadruplicate at the time of media change. At day 7, 10 µL of MTT reagent (M6494, Molecular Probes™) was added to each well of the 96 well plate and incubated at 37 °C for 4 h. The formazan was then solubilized by adding 100 µL acidified 10% SDS solution and incubated at 37 °C overnight. Plates were read for absorbance at 570 nm using a PHERAstar BMG microplate reader. The experiments were performed two times in quadruplicates with calculation of mean and SD for each condition. Data were analyzed in Prism 8.0.0 to obtain GI50 values.
(§2) Supplementary Figure 7. […] (a)
(§3) Titration curves from the MTT cell viability assay performed after 4, 7, and 11 (or 10) days of
(§4) Titration curves from the MTT cell viability assay performed after 7 days of treatment of KOPN8 ,
(§5) MOLM13 and MV4;11 cell lines harboring MLL1 translocation (MLL1-r) or K562 cell line (non-
(§6) Representative graphs are shown
(§7) from two independent MTT experiments performed for each cell line.

In the next test the test system is MV4;11 cells. The experiment in a line: MTT cell viability assay. Conditions: MTT, 7 days. As to the method: as §1, §2, §3, §4, §5, §6, §7
Test [1] concerns MLL leukemia cells (MV4;11, MOLM13, KOPN8, RS4;11). The experiment in a line: MTT cell viability assay, MLL leukemia cells as a group. The note with it: Homo sapiens, MLL leukemia cells. As to the method: Human leukemia cells K562, MV4;11 and RS4;11 (purchased from ATCC) and KOPN8, MOLM13 (purchased from DSMZ) were cultured in RPMI 1640 (Invitrogen) supplemented with 10% heat inactivated (h.i.) FBS and 1% penicillin/streptomycin (Invitrogen). SET2 cells (purchased from DSMZ) were cultured in RPMI 1640 supplemented with 20% h.i. FBS and 1% penicillin/streptomycin. Cells were plated at 1 × 10^5 to 2 × 10^5 cells/mL depending on cell line and treated with 0.25% DMSO or varying concentrations of compounds and incubated at 37 °C, 5% CO2 incubator for 7 days. Media was changed on day 3 or 4 and compounds were resupplied. […] Cell suspensions (100 μL) were transferred to the 96-well plates for each sample in quadruplicate at the time of media change. At day 7, 10 µL of MTT reagent (M6494, Molecular Probes™) was added to each well of the 96 well plate and incubated at 37 °C for 4 h. The formazan was then solubilized by adding 100 µL acidified 10% SDS solution and incubated at 37 °C overnight. Plates were read for absorbance at 570 nm using a PHERAstar BMG microplate reader. The experiments were performed two times in quadruplicates with calculation of mean and SD for each condition. Data were analyzed in Prism 8.0.0 to obtain GI50 values.
Supplementary Figure 4. Cell viability assay for AS-6 in MLL leukemia cell lines. Titration curves from the MTT cell viability assay performed after 7 days of treatment of human MLL1- […]
replicates. Representative graphs are shown from two independent MTT experiments performed […]
as §2
Titration curves from the MTT cell viability assay performed after 4, 7, and 11 (or 10) days of […]
Titration curves from the MTT cell viability assay performed after 7 days of treatment of KOPN8 , MOLM13 and MV4;11 cell lines harboring MLL1 translocation (MLL1-r) or K562 cell line (non- […]
Representative graphs are shown from two independent MTT experiments performed for each cell line. GI50 values correspond to […]
(Tetrazolium dyes change colour on reduction, which living cells bring about.)

Where “and” joins values, the source holds several entries; their conditions need not be identical. Equal entries are not always repeated.

In the case of `CS(=O)(=O)N1CCC(n2cc(-c3cccc(C(N)=S)c3)c3ccc(CNC(=O)Cc4c[nH]cn4)cc32)CC1` [AS-6], the “% activity MOLM13” value in the test with MOLM13 cells (log[compound] -4.30103) was 44.6695% and 48.1072% and 45.3243%; with MOLM13 cells (log[compound] -4.60206), 58.0929% and 58.2566% and 58.584% and 59.3207%; in the test on MOLM13 cells (log[compound] -4.90309) it was 66.769% and 64.8864% and 66.8508%; in the test with MOLM13 cells (log[compound] -5.20412) it was 75.8543% and 77.8187% and 79.7831% and 79.8649%; in the test with MOLM13 cells (log[compound] -5.50515), 91.8969% and 80.7653% and 85.3489% and 88.2955%; with MOLM13 cells (log[compound] -5.80618), 93.7794% and 90.9965% and 88.7047% and 81.3382%. The “% activity MOLM13” value with MOLM13 cells (log[compound] -6.10721) was 102.456% and 101.555% and 98.1993% and 97.7901%. The “% activity MV4;11” value in the test on MV4;11 cells (log[compound] -4.30103) was 54.5576% and 57.6227% and 55.8763% and 56.7674%; with MV4;11 cells (log[compound] -4.60206) it was 56.8386% and 61.0443% and 58.6207% and 61.2225%; with MV4;11 cells (log[compound] -4.90309), 61.2938% and 67.4597% and 60.9374%; in the test with MV4;11 cells (log[compound] -5.20412), 76.1205% and 82.5002% and 82.4289% and 79.6846%; in the test on MV4;11 cells (log[compound] -5.50515), 94.9746% and 100.606% and 92.9787% and 93.7272%; in the test on MV4;11 cells (log[compound] -5.80618), 95.5805% and 97.9685% and 95.0102% and 103.208%. For the same compound, the “% activity MV4;11” value in the test with MV4;11 cells (log[compound] -6.10721) was 95.9013% and 98.3962% and 101.354% and 104.348%. The concentration for 50% growth inhibition (GI50) (commonly the concentration that inhibits growth by half) in test [1] is approximately 50 µM.
